This note sets out measurements from patent publication US5216005A, “Immunosuppressive analogues and derivatives of succinylacetone” (priority 1990, dated 1993).

The assay deals with adjuvant induced arthritis. Briefly: adjuvant induced arthritis in rats, overall arthritis score; intraarticular right paw, per kg: succinylacetone 325 μg, methyl ester 150 μg, 4-acetyl-5-oxohexanoate 560 μg. It is filed as in vivo, rat.

Take `CC(=O)CC(=O)CCC(=O)O` [Succinylacetone, 4,6-dioxoheptanoic acid]: the overall arthritis score (Exp. I (treated from same day), day 14) is reported as 0.6 ± 1.3; the overall arthritis score (Exp. I (treated from same day), day 16) is recorded as 0.8 ± 1.8; the overall arthritis score (Exp. I (treated from same day), day 18) is listed as 1.4 ± 2.6; the overall arthritis score (Exp. I (treated from same day), day 20) came to 3 ± 5; the overall arthritis score (Exp. I (treated from same day), day 22) is 3.8 ± 5; the overall arthritis score (Exp. I (treated from same day), day 24) is given as 4 ± 3.9. Moreover, the overall arthritis score runs as follows: (Exp. I (treated from same day), day 26) 5 ± 4.3; (Exp. II (treated from day 4), day 14) 3.2 ± 3.8; (Exp. II (treated from day 4), day 16) 3.2 ± 3.8; (Exp. II (treated from day 4), day 18) 4.8 ± 3.6; (Exp. II (treated from day 4), day 20) 7 ± 2.3; (Exp. II (treated from day 4), day 22) 6.2 ± 2.4. The overall arthritis score is reported as 6 ± 2.7 (Exp. II (treated from day 4), day 24); 7.8 ± 3 (Exp. II (treated from day 4), day 26); 2.0 ± 3.9 (Exp. III (treated from day 14), day 14); 2.0 ± 3.9 (Exp. III (treated from day 14), day 16); 2.0 ± 2.9 (Exp. III (treated from day 14), day 18); 2.4 ± 2.9 (Exp. III (treated from day 14), day 20). The overall arthritis score runs as follows: (Exp. III (treated from day 14), day 22) 4.0 ± 3.7; (Exp. III (treated from day 14), day 24) 2.8 ± 2.8; (Exp. III (treated from day 14), day 26) 3.4 ± 2.7. Moreover, the effect on arthritis entry (comparison of treatment schedules, in words) is listed as “also effective when administered 14 days subsequent to injection”.
